Here are results for one compound from US10253081B2, “Glucagon analogues” (Zealand Pharma A/S, priority 2012, dated 2019).

The target of series [1] is T1, human glucagon receptor (Glucagon-R) (Homo sapiens, UniProt P47871).
T1 construct: expressed in transfected cells
Description: Glucagon receptor efficacy assay (cAMP AlphaScreen, CHO cells). In kind it is cell-based. As to conditions: Table 1A; CHO cells expressing human Glucagon-R, cAMP; read-out: EC50 hGCGR CHO-K1. The essentials: (§1)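 Stably transfected CHO clones expressing human GLP-1R or glucagon receptor were treated with increasing peptide concentrations for 15 min at room temperature in KRBH containing 0.1 mM IBMX. After lysis, cAMP was quantified by AlphaScreen; EC50 and efficacy relative to GLP-1 or glucagon reference came from curve fitting.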

The target in series [2] is T2, human glucagon-like peptide 1 receptor (GLP-1R) (Homo sapiens, UniProt P43220).
T2 construct: expressed in transfected cells
Description: GLP-1 receptor efficacy assay (cAMP AlphaScreen, CHO cells). The class given is cell-based. The conditions noted are these: Table 1A. The essentials: as §1

The target of series [3] is T3, endogenous GLP-1 receptors (Mus musculus, UniProt O35659).
T3 construct: Agonistic activity of the test compounds on endogenous GLP-1 receptors; endogenous in cells
T3 sequence (O35659 22-463): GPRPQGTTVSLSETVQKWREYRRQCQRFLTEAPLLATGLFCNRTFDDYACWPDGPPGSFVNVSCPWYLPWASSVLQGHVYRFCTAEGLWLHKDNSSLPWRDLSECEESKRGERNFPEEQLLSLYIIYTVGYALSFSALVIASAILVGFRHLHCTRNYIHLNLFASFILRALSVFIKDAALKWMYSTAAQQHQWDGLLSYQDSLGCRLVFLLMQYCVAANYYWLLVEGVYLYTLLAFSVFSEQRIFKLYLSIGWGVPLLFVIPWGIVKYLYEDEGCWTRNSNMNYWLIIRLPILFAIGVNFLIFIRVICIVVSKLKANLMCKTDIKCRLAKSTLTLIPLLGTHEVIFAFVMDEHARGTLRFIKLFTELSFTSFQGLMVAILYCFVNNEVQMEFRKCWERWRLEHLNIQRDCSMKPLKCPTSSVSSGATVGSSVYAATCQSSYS
Description: Agonistic activity on endogenous GLP-1 receptor (cAMP, murine insulinoma cell line). In kind it is cell-based. The conditions noted are these: intracellular cAMP, 15 minutes at 26° C.; read-out: EC50 GLP-1R (murine insulinoma cells). The essentials: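 Murine insulinoma cells were exposed 15 min at 26° C in KRBH with 0.1% DMSO to compound or GLP-1 ([…]), then cAMP was measured by AlphaScreen against a standard curve, in quadruplicate. pEC50 came from curve fits; % CTL was normalised to the maximal GLP-1 cAMP response.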

The nature of series [4]: Pharmacokinetic parameters after subcutaneous and intravenous administration to mice. The class given is in vivo. The conditions noted are these: male, mouse, plasma, 20 nmol/kg, C57Bl/6J mice; for half-life: read-out: Terminal half life (converted). The procedure:
Pharmacokinetic parameters of the test compounds were determined after subcutaneous and intravenous administration to C57Bl/6J mice.
8 week old male C57Bl/6J mice were obtained from Taconic (Denmark) weighing approximately 20-25 g at time of arrival at the test facility. The mice were caged in European standard cages type III with light cycle of 12-hour dark and 12-hour light (lights on 06.00). Both diet, Altromin 1324 (Altromin, Germany), and water was administered ad libitum during the whole experimental period. The 8-11 week animals were imported to the laboratory at least 7 days before the start up of the experimental procedure in order to assure proper acclimatization. After sampling the mice were euthanized by cervical dislocation.
The compounds were first dissolved in 0.096% aqueous ammonia to a nominal concentration of 2 mg/ml, and then diluted to the desired dosing strength (4 μM) in sterile PBS containing 25 mM phosphate buffer, pH 7.4. Subcutaneous and intravenous injections corresponding to 20 nmol/kg were given. The GLP-1-glucagon dual agonists were administered for subcutaneous dosing in the neck region and via a lateral tail vein for intravenous dosing.
Blood samples (250 μl) were collected from the periorbital plexus at time points 0.5, 2, 4, 6, 12, 16, 20, 24 h for subcutaneous and 10, 30 min, 3, 6, 12, 18, 24 h for intravenous administration into ice-chilled K3EDTA tubes and centrifuged for 5 minutes at 4° C. within 20 minutes of sampling. Plasma (>100 μl) was separated to ice-chilled Micronic tubes, immediately frozen, and kept at −70° C. until analysed for plasma concentration for the respective GLP-1-glucagon compound using LC-MS/MS. Individual plasma concentration-time profiles were analysed by a non-compartmental approach in WinNonLin v6.3 (Pharsight inc, Mountain View, Calif., USA), and the resulting pharmacokinetic parameters determined.

Series [5] can be described thus: Oral glucose tolerance test (OGTT). The class given is in vivo, C57BL/6J mice. As to conditions: blood glucose AUC 0-120 min, 10 nmol/kg s.c. 4 h before oral glucose 2 g/kg. Here is the method:
Male C57BL/6J mice were fasted for 10 h before they received an oral glucose bolus of 2 g/kg body weight. Peptides were dissolved in saline buffered with 25 mM phosphate and administered at a dose of 10 nmol/kg body weight by subcutaneous injection 4 h before the glucose bolus. Control animals received a vehicle injection only. Group size was 7 animals per group. A pre-dose and a pre-glucose (0 min) blood sample were obtained by tail bleeding and blood glucose was measured with a glucometer. Additional samples of tail blood for measuring blood glucose were obtained 15 min, 30 min, 60 min, 90 min and 120 min after the glucose challenge. […] Calculation of AUC was done by the trapezoidal rule without baseline correction. The data are presented as mean±S.E.M. Statistical comparisons were conducted by one-way ANOVA followed by Tukey's post test. Vehicle alone was used as a control.

Read-outs that look alike come from different tables or passages of the source. *1 amine or outer side, *2 acyl side, *3 side chain or, on linkers, in order; H or OH if unused. Where a SMILES comes first, the peptide text is derived from it. Side-chain parts run from the residue outwards. [ ]: non-standard residue; d: D form. The star is where a group is joined. γGlu = O=C(O)[C@H](CCC(=O)[*:2])N[*:1]; Palmitoyl = CCCCCCCCCCCCCCCC(=O)*; Aib = CC(C)(N)C(=O)O

T2 sequence (P43220 24-463): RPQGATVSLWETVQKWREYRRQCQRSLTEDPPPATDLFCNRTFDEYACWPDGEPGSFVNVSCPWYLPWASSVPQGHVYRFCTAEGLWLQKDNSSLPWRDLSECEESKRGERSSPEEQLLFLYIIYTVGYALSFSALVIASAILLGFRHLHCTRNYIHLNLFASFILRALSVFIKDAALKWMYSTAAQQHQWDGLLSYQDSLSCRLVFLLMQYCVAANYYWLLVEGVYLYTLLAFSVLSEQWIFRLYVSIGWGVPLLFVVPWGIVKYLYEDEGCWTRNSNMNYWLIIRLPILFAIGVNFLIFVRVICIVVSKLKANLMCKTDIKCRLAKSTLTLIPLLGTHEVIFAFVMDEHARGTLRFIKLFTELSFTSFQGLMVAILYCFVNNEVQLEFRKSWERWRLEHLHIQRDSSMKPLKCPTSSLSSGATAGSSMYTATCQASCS
T1 sequence (P47871 26-477): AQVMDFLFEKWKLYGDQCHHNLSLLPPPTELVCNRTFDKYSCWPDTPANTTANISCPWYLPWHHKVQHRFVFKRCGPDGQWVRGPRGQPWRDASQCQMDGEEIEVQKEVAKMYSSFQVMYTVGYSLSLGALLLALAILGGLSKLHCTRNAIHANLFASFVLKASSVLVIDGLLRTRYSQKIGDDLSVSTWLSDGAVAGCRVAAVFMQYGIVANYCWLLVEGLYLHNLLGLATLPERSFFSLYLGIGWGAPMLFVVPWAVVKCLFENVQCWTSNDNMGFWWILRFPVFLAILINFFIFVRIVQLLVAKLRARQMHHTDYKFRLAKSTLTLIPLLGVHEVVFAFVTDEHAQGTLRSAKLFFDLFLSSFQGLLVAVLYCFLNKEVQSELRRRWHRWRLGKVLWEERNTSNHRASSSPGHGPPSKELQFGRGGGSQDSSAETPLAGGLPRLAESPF

Consider `CCCCCCCCCCCCCCCC(=O)N[C@@H](CCC(=O)NCCCC[C@H](NC(=O)[C@H](CCC(=O)O)NC(=O)[C@H](CC(=O)O)NC(=O)[C@H](CC(C)C)NC(=O)[C@H](Cc1ccc(O)cc1)NC(=O)[C@H](CCCCN)NC(=O)[C@H](CO)NC(=O)[C@H](Cc1ccc(O)cc1)NC(=O)[C@H](CC(=O)O)NC(=O)[C@H](CO)NC(=O)[C@@H](NC(=O)[C@H](Cc1ccccc1)NC(=O)[C@@H](NC(=O)CNC(=O)[C@H](CCC(N)=O)NC(=O)C(C)(C)NC(=O)[C@@H](N)Cc1c[nH]cn1)[C@@H](C)O)[C@@H](C)O)C(=O)N[C@@H](CCCNC(=N)N)C(=O)N[C@@H](C)C(=O)N[C@@H](CCCCN)C(=O)N[C@@H](CC(=O)O)C(=O)N[C@@H](Cc1ccccc1)C(=O)N[C@H](C(=O)N[C@@H](CCC(=O)O)C(=O)N[C@@H](Cc1c[nH]c2ccccc12)C(=O)N[C@@H](CC(C)C)C(=O)N[C@@H](CC(C)C)C(=O)N[C@@H](CO)C(=O)O)[C@@H](C)CC)C(=O)O` [Compound 11, H-H-Aib-QGTFTSDYSKYLDE-K(Hexadecanoyl-isoGlu)-RAKDFIEWLLS-OH] (H-H[Aib]QGTFTSDYSKYLDEK([γGlu-Palmitoyl])RAKDFIEWLLS-OH), for which the EC50 in series [1] was determined as 0.61 nM. For the same compound, the EC50 in series [2] (CHO cells expressing human GLP-1-R, cAMP, read-out: EC50 hGLP-1R CHO-K1) is 0.64 nM. In addition, the “Ratio GLP-1/Glucagon” value in series [2] (EC50 [GLP-1R]/EC50 [Glucagon-R]) was determined as 1.05. Moreover, the EC50 in series [3] is 1.01 nM. Further, in series [4] (IV), the clearance is 0.157 mL/min/kg and the half-life was 3.9 h. In series [4] (SC), the Tmax worked out at 4 h, the bioavailability came to 64% and the half-life was 5 h. In addition, the MRT in series [4] (SC, read-out: Mean Residence Time) was found to be 12.5 h. The “AUC (% Ctrl)” value in series [5] stood at 61 % Ctrl.
